Test system: bcl2Mid (DNA, G4) GGGCGCGGGAGGAATTGGGCGGG
Experiment: native PAGE
Details: K+ (25 mM K-phosphate, 70 mM KCl); samples pH 7.0; gel in TBE pH 8.0; higher-order assemblies at all equivalents

`NCCNCCN.NCCNCCN.NCCNCCN.[Pt+2].[Pt+2].[Pt+2].c1cc(-c2ccc(N(c3ccc(-c4ccncc4)cc3)c3ccc(-c4ccncc4)cc3)cc2)ccn1` was tested, and the binding was “yes”.
